Source: ChEMBL document CHEMBL1144542, “Design of endoperoxides with anti-Candida activity” (Bioorg Med Chem, 2007)
pIC50: −log10 of the molar value.

Key:
[1] = system: Candida albicans; assay: Growth inhibition of Candida albicans JRW#5; assay type: functional, organism-based
[2] = system: Erythrocyte; assay: Hemolytic activity in human erythrocytes at 1 mM; assay type: functional
[3] = system: CHO; assay: Cytotoxicity against CHO cells at 1.0 mM after 3 days relative to control; assay type: cell-based, Cricetulus griseus; settings: chinese hamster, 72 h, 1000 µM
[4] = system: CHO; assay: Cytotoxicity against CHO cells at 0.1 mM after 3 days relative to control; assay type: cell-based, Cricetulus griseus; settings: chinese hamster, 72 h, 100 µM

Structure (SMILES) | pIC50 [1] | Activity [2] [%] | Activity [3] | Activity [4]
C1C2CC3CC1CC(C[C@H]1OOC[C@H]4O[C@@H]14)(C2)C3 | 3.90 | – | – | –
C1CCC([C@@]23COOC[C@@H]2O3)CC1 | 3.30 | – | – | –
C[C@H]1OO[C@@H](COCc2ccccc2)[C@H]2O[C@H]21 | 4.20 | – | – | –
C1=C[C@@H](C23CC4CC(CC(C4)C2)C3)OOC1 | 4.51 | 100 | – | –
C1C2CC3CC1CC(C[C@H]1OOC[C@@H]4O[C@@H]41)(C2)C3 | 3.90 | – | – | –
C1=C[C@@H](COCc2ccccc2)OO[C@H]1COCc1ccccc1 | 4.80 | 2 | Active | –
C1C2CC3CC1CC([C@@H]1OO[C@H](C45CC6CC(CC(C6)C4)C5)[C@H]4O[C@H]41)(C2)C3 | < 3.00 | – | – | –
C1=C(C2CCCCC2)COOC1 | 4.20 | – | – | –
C1CC2OOC1C1OC21 (stereo not drawn) | 4.80 | 0 | Active | Active
CCCCCCC1=CCOOC1 | 3.60 | 61 | – | –
CCCCCC[C@@]12COOC[C@@H]1O2 | 3.30 | 31 | – | –
CCCCCCC[C@H]1OOC[C@@H]2O[C@@]21CCCCCC | < 3.00 | – | – | –
C[C@@H]1C=C[C@H](CO)OO1 | 4.80 | 0 | – | Active
CCCCCCC[C@@H]1C=CCOO1 | 4.20 | 60 | – | –
CCCCCCC[C@H]1OOC[C@H]2O[C@@]12CCCCCC | < 3.00 | – | – | –
C[C@@H]1C=C[C@H](COCc2ccccc2)OO1 | 3.60 | – | – | –
CCCCCCC[C@H]1OOCC=C1CCCCCC | 3.60 | – | – | –
C[C@H]1OO[C@@H](COC(=O)C23CC4CC(CC(C4)C2)C3)[C@H]2O[C@H]21 | 3.90 | – | – | –
CCCCCCC[C@H]1OOC[C@H]2O[C@@H]12 | 4.20 | – | – | –
C[C@@H]1C=C[C@H](COC(=O)C23CC4CC(CC(C4)C2)C3)OO1 | 3.90 | – | – | –
C[C@H]1OO[C@@H](COC(=O)C23CC4CC(CC(C4)C2)C3)[C@@H]2O[C@@H]21 | 3.60 | – | – | –
C[C@@H]1C=C[C@H](CCCO)OO1 | 3.60 | – | – | –
C[C@@H]1C=C[C@H](COC(=O)CC23CC4CC(CC(C4)C2)C3)OO1 | 3.90 | – | – | –
C[C@H]1OO[C@@H](COC(=O)CC23CC4CC(CC(C4)C2)C3)[C@@H]2O[C@@H]21 | < 3.00 | – | – | –

Structure (SMILES) | pIC50 [1] | Activity [2] [%] | Activity [3] | Activity [4]
c1ccc(COC[C@@H]2OO[C@H](COCc3ccccc3)[C@H]3O[C@H]32)cc1 | 3.60 | – | – | –
c1ccc(COC[C@@H]2OO[C@H](COCc3ccccc3)[C@@H]3O[C@@H]32)cc1 | 4.20 | 1 | – | Active
CCCCCCC[C@H]1OO[C@@H](CCC)[C@H]2O[C@H]21 | 3.30 | 25 | – | –
CCCCCCC[C@@H]1C=C[C@H](CCC)OO1 | 3.60 | 86 | – | –
C1=C(C23CC4CC(CC(C4)C2)C3)COOC1 | 4.20 | – | – | –
C[C@H]1OO[C@@H](CCCO)[C@@H]2O[C@@H]21 | < 3.00 | – | – | –
C[C@H]1OO[C@@H](CO)[C@@H]2O[C@@H]21 | < 3.00 | – | – | –
C1=C[C@@H](CC23CC4CC(CC(C4)C2)C3)OOC1 | 3.90 | – | – | –
C1=C[C@H](C23CC4CC(CC(C4)C2)C3)OO[C@@H]1C12CC3CC(CC(C3)C1)C2 | < 3.00 | – | – | –
CCCCCCC[C@H]1OOC[C@@H]2O[C@@H]21 | 4.20 | 33 | – | –
C1C2CC3CC1CC([C@@]14COOC[C@@H]1O4)(C2)C3 | 3.90 | – | – | –
C[C@H]1OO[C@@H](COC(=O)CC23CC4CC(CC(Br)(C4)C2)C3)[C@H]2O[C@H]21 | < 3.00 | – | – | –
C[C@@H]1C=C[C@H](COC(=O)CC23CC4CC(CC(Br)(C4)C2)C3)OO1 | 3.60 | – | – | –
C[C@H]1OO[C@@H](COC(=O)CC23CC4CC(CC(Br)(C4)C2)C3)[C@@H]2O[C@@H]21 | < 3.00 | – | – | –
C1C2CC3CC1CC([C@H]1OOC[C@@H]4O[C@@H]41)(C2)C3 | 4.51 | 41 | – | –
C[C@H]1OO[C@@H](COC(=O)CC23CC4CC(CC(C4)C2)C3)[C@H]2O[C@H]21 | 3.60 | – | – | –
c1ccc([C@H]2OO[C@@H](c3ccccc3)[C@@H]3O[C@@H]32)cc1 | 3.30 | – | – | –
C1CCC(C[C@H]2OOC[C@@H]3O[C@@H]32)CC1 | 3.90 | – | – | –
CCCCCCC[C@H]1OO[C@@H](CCC)[C@@H]2O[C@@H]21 | 3.30 | 45 | – | –
C1=C[C@@H](CC2CCCCC2)OOC1 | 3.90 | – | – | –
C1CCC(C[C@H]2OOC[C@H]3O[C@@H]23)CC1 | 3.90 | – | – | –
C1=C[C@H](c2ccccc2)OO[C@@H]1c1ccccc1 | 4.51 | – | Active | Active
C[C@H]1OO[C@@H](COCc2ccccc2)[C@@H]2O[C@@H]21 (single isomer, unassigned) | 3.90 | – | – | –
C[C@@H]1[C@H](O)[C@@H](C)/C=C/C=C/C=C/C=C/C=C/C=C/C=C/[C@H](O[C@@H]2O[C@H](C)[C@@H](O)[C@H](N)[C@@H]2O)C[C@@H]2O[C@](O)(C[C@@H](O)C[C@@H](O)[C@H](O)CC[C@@H](O)C[C@@H](O)CC(=O)O[C@H]1C)C[C@H](O)[C@H]2C(=O)O [AMPHOTERICIN B] | > 6.30 | – | – | –
